# Measured values from PubChem BioAssay AID1963841 (Molecular Pharmacology Branch, DTP, NCI, 2024).
# System: 439559-082-T-J2-PDC spheroid viability
# Experiment: Anticancer human tumor 439559-082-T-J2-PDC patient-derived colon adenocarcinoma cell line growth inhibition [POLQ]
# Conditions: spheroids with HUVEC and MSC; for IC50: curve of first compound; for viability, T/C: stronger effect = lower value
# Summary of the method: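 Complex spheroid viability model combining PDC tumour cells with endothelial (HUVEC) and MSC stromal cells. Novobiocin, ART-558 or RP6685 were tested singly and in combination with standard and investigational anticancer drugs. Each was titrated in half-log steps from near clinical Cmax, or from 10 microM where Cmax was unknown.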
# 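Note: spheroids exposed to compounds for seven days before readout.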
# 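Throughout, for viability, T/C: 100% = DMSO vehicle control viability.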
smiles,measurement,setting,value
CC(=O)O[C@H]1C(=O)[C@@]2(C)[C@H]([C@H](OC(=O)c3ccccc3)[C@]3(O)C[C@H](OC(=O)[C@H](O)[C@@H](NC(=O)c4ccccc4)c4ccccc4)C(C)=C1C3(C)C)[C@]1(OC(C)=O)CO[C@@H]1C[C@@H]2O + COC1C(OC(N)=O)C(O)C(Oc2ccc3c(O)c(NC(=O)c4ccc(O)c(CC=C(C)C)c4)c(=O)oc3c2C)OC1(C)C,IC50,second compound 0.0316 µM,1050 nM
same,IC50,second compound 0.1 µM,1480 nM
same,IC50,second compound 0.316 µM,1380 nM
same,IC50,second compound 1 µM,1500 nM
same,IC50,second compound 3.16 µM,1280 nM
same,IC50,second compound 10 µM,1530 nM
same,"viability, T/C","second compound 0.0316 µM, first compound 0.00949 µM",87.2%
same,"viability, T/C","second compound 0.0316 µM, first compound 0.03 µM",90.8%
same,"viability, T/C","second compound 0.0316 µM, first compound 0.0949 µM",78.8%
same,"viability, T/C","second compound 0.0316 µM, first compound 0.3 µM",77%
same,"viability, T/C","second compound 0.0316 µM, first compound 0.949 µM",49.9%
same,"viability, T/C","second compound 0.0316 µM, first compound 3 µM",39.4%
same,"viability, T/C","second compound 0.1 µM, first compound 0.00949 µM",90.8%
same,"viability, T/C","second compound 0.1 µM, first compound 0.03 µM",88.4%
same,"viability, T/C","second compound 0.1 µM, first compound 0.0949 µM",80.6%
same,"viability, T/C","second compound 0.1 µM, first compound 0.3 µM",75.3%
same,"viability, T/C","second compound 0.1 µM, first compound 0.949 µM",57.1%
same,"viability, T/C","second compound 0.1 µM, first compound 3 µM",37.4%
same,"viability, T/C","second compound 0.316 µM, first compound 0.00949 µM",93.5%
same,"viability, T/C","second compound 0.316 µM, first compound 0.03 µM",89.6%
same,"viability, T/C","second compound 0.316 µM, first compound 0.0949 µM",80.4%
same,"viability, T/C","second compound 0.316 µM, first compound 0.3 µM",71%
same,"viability, T/C","second compound 0.316 µM, first compound 0.949 µM",56.5%
same,"viability, T/C","second compound 0.316 µM, first compound 3 µM",37.1%
same,"viability, T/C","second compound 1 µM, first compound 0.00949 µM",90.1%
same,"viability, T/C","second compound 1 µM, first compound 0.03 µM",87.2%
same,"viability, T/C","second compound 1 µM, first compound 0.0949 µM",79.3%
same,"viability, T/C","second compound 1 µM, first compound 0.3 µM",73%
same,"viability, T/C","second compound 1 µM, first compound 0.949 µM",57.8%
same,"viability, T/C","second compound 1 µM, first compound 3 µM",38.5%
same,"viability, T/C","second compound 3.16 µM, first compound 0.00949 µM",90.3%
same,"viability, T/C","second compound 3.16 µM, first compound 0.03 µM",83.3%
same,"viability, T/C","second compound 3.16 µM, first compound 0.0949 µM",82.3%
same,"viability, T/C","second compound 3.16 µM, first compound 0.3 µM",69.1%
same,"viability, T/C","second compound 3.16 µM, first compound 0.949 µM",53.2%
same,"viability, T/C","second compound 3.16 µM, first compound 3 µM",40.4%
same,"viability, T/C","second compound 10 µM, first compound 0.00949 µM",90.8%
same,"viability, T/C","second compound 10 µM, first compound 0.03 µM",80.1%
same,"viability, T/C","second compound 10 µM, first compound 0.0949 µM",80.5%
same,"viability, T/C","second compound 10 µM, first compound 0.3 µM",74.8%
same,"viability, T/C","second compound 10 µM, first compound 0.949 µM",55%
same,"viability, T/C","second compound 10 µM, first compound 3 µM",40.2%
O=c1[nH]cc(F)c(=O)[nH]1 + COC1C(OC(N)=O)C(O)C(Oc2ccc3c(O)c(NC(=O)c4ccc(O)c(CC=C(C)C)c4)c(=O)oc3c2C)OC1(C)C,IC50,second compound 0.0316 µM,> 10000 nM
same,IC50,second compound 0.1 µM,> 10000 nM
same,IC50,second compound 0.316 µM,> 10000 nM
same,IC50,second compound 1 µM,> 10000 nM
same,IC50,second compound 3.16 µM,> 10000 nM
same,IC50,second compound 10 µM,> 10000 nM
same,"viability, T/C","second compound 0.0316 µM, first compound 0.0316 µM",92.1%
same,"viability, T/C","second compound 0.0316 µM, first compound 0.1 µM",94.8%
same,"viability, T/C","second compound 0.0316 µM, first compound 0.316 µM",80.5%
same,"viability, T/C","second compound 0.0316 µM, first compound 1 µM",74.8%
same,"viability, T/C","second compound 0.0316 µM, first compound 3.16 µM",72.9%
same,"viability, T/C","second compound 0.0316 µM, first compound 10 µM",70.1%
same,"viability, T/C","second compound 0.1 µM, first compound 0.0316 µM",103%
same,"viability, T/C","second compound 0.1 µM, first compound 0.1 µM",99.7%
same,"viability, T/C","second compound 0.1 µM, first compound 0.316 µM",85.9%
same,"viability, T/C","second compound 0.1 µM, first compound 1 µM",72.3%
same,"viability, T/C","second compound 0.1 µM, first compound 3.16 µM",69.8%
same,"viability, T/C","second compound 0.1 µM, first compound 10 µM",70.1%
same,"viability, T/C","second compound 0.316 µM, first compound 0.0316 µM",108%
same,"viability, T/C","second compound 0.316 µM, first compound 0.1 µM",97.5%
same,"viability, T/C","second compound 0.316 µM, first compound 0.316 µM",83.4%
same,"viability, T/C","second compound 0.316 µM, first compound 1 µM",74.1%
same,"viability, T/C","second compound 0.316 µM, first compound 3.16 µM",72.8%
same,"viability, T/C","second compound 0.316 µM, first compound 10 µM",66.8%
same,"viability, T/C","second compound 1 µM, first compound 0.0316 µM",103%
same,"viability, T/C","second compound 1 µM, first compound 0.1 µM",96.7%
same,"viability, T/C","second compound 1 µM, first compound 0.316 µM",79.9%
same,"viability, T/C","second compound 1 µM, first compound 1 µM",75.5%
same,"viability, T/C","second compound 1 µM, first compound 3.16 µM",68.2%
same,"viability, T/C","second compound 1 µM, first compound 10 µM",66.9%
same,"viability, T/C","second compound 3.16 µM, first compound 0.0316 µM",97.8%
same,"viability, T/C","second compound 3.16 µM, first compound 0.1 µM",98.3%
same,"viability, T/C","second compound 3.16 µM, first compound 0.316 µM",83.9%
same,"viability, T/C","second compound 3.16 µM, first compound 1 µM",73.2%
same,"viability, T/C","second compound 3.16 µM, first compound 3.16 µM",69.1%
same,"viability, T/C","second compound 3.16 µM, first compound 10 µM",61.6%
same,"viability, T/C","second compound 10 µM, first compound 0.0316 µM",104%
same,"viability, T/C","second compound 10 µM, first compound 0.1 µM",88.9%
same,"viability, T/C","second compound 10 µM, first compound 0.316 µM",80.9%
same,"viability, T/C","second compound 10 µM, first compound 1 µM",69.7%
same,"viability, T/C","second compound 10 µM, first compound 3.16 µM",70.1%
same,"viability, T/C","second compound 10 µM, first compound 10 µM",64.3%
